Read-outs that look alike come from different tables or passages of the source.
Experiments:
[1] = molecular target: T1, monoamine oxidase B (MAO-B) (Rattus norvegicus, UniProt P19643); experiment: biochemical
T1 construct: from tissue; host or cells: brain cortex of male F344/N rats (supernatant of homogenate)
T1 sequence (P19643 1-520): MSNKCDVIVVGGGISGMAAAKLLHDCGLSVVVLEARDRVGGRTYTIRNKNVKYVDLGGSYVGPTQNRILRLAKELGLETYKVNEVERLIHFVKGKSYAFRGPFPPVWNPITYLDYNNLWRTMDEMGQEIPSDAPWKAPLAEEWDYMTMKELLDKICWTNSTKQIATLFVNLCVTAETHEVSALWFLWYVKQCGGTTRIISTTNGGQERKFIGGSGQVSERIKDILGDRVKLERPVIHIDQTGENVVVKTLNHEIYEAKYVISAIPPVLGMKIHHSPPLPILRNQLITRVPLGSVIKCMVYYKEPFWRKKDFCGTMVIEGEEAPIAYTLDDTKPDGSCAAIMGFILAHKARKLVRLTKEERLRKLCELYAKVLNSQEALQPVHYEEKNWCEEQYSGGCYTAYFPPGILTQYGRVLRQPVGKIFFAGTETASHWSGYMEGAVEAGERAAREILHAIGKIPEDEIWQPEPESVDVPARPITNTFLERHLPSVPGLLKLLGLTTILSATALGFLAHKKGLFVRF
Method: At first, monoamine oxidase B (MAO-B) was purified from rat brain cortex, and then activity inhibition assay of these derivatives against monoamine oxidase B(MAO-B) was carried out.
MAO-B enzyme preparations were prepared from brain cortex of decapitalized male F344/N rats. The brain cortex in PBS solution was frozen with liquid nitrogen and kept at −80° C. for 3 days. The homogenate was then obtained by centrifugation (14,000 rpm, 10 min) of the frontal cortex in 0.1 M potassium phosphate buffer (pH 7.4) at 4° C. and the supernatant was taken as the enzyme source for MAO. A standard solution containing 0.1 M potassium phosphate buffer and albumin were prepared in different concentration grades. Ten microliters of each solution was taken and added with 200 μl of BCA kit. Following the similar method, the above supernatant from brain cortex was diluted and 10 μl of stock solution taken and added with […] of BCA kit. Both standard and sample solutions were incubated at 37° C. for 30 min. 200 μl of the solutions was added to each well of a 96-well microplate and the protein contents were measured with a fluorescence microplate reader by determining optical density at 595 nm.
To the supernatant (protein content, 80 μg/ml) in 96-well microplate was added with 1 U/ml HRP (Horseradish Peroxidase), […] benzylamine, and 50 μM Amplex red in 0.1 M potassium phosphate buffer followed by the tested sample, which was prepared in 200 μg/ml in DMSO as stock solution. These mixtures were incubated at room temperature for 60 min and optical density was determined by a fluorometric reader. Its IC50 was calculated then with the following formula. IC50: median inhibitory concentration, which is defined in this example as the concentration of a inhibitor that is needed for inhibiting 50% activity of an enzyme. Inhibition (%)=1−[(OD595 of sample/protein−[…] of sample)/OD595 of blank]×100% • OD595: Optical density at 595 nm (wavelength) • protein: protein content of control 3. Statistical Analysis

γ-secretase = molecular target: T2, γ-secretase (Homo sapiens, UniProt P49768); experiment: Cell-based γ-secretase assay (luciferase reporter) in T-20 cell line
T2 construct: measure the activity of γ-secretase in T-20 cell line; endogenous in cells; host or cells: T-20 (T-REx293/HEK293 stably transfected with C99-GV/TO and Gal4-Luc)
Method: In this example, a quantitative cell-based assay described in reference (2) and (3) was employed to measure the activity of γ-secretase in T-20 cell line.
Cell lysis and the addition of reagents for luciferase assay were completed simultaneously using the Steady-Glo luciferase assay system (Promega) as described in the manufacturer's instructions. Luciferase signals were determined by a VictorLight microplate luminometer (PerkinElmer).
A quantitative cell-based γ-secretase assay in T-20 cell line described in reference (2) was employed to measure the activity of γ-secretase. In this example, said assay and cell line thereof was used to measure effect of 1,2,3,4-tetrahydroisoquinoline derivatives on the activity of γ-secretase.
T-20 cells were routinely maintained in DMEM supplemented with 10% FBS, 200 μg/ml of hygromycin, 5 μg/ml of blasticidin, and 250 μg/ml of zeocin (DMEM-HZB). The stably transfected T-20 cells were detached from culture dishes by trypsinization, washed with PBS, and resuspended in DMEM-HZB, followed by plating onto 96-well microplates (2×10^4 cells/50 μl/well) and incubating at 37° C. for 24 hours. Preliminarily, compounds diluted in DMEM-HZB were added to a final concentration of 10 μM in the presence of tetracycline (1 μg/ml). Treatments were terminated after incubation at 37° C. for 24 hours by adding directly an equivalent volume of the Steady-Glo luciferase assay reagent (Promega), and measurements of luciferase signals from each well were performed immediately with the VictorLight microplate luminometer) (PerkinElmer). Triplicates of each compound treatment were assayed. Luciferase signal from the stable line without tetracycline induction and compound treatment was referred to as one-fold of activation. Parallel testing with a cell line constitutively expressing only the luciferase reporter gene (e.g., under control of a CMV promoter) was performed as a control.
Briefly, T-20 cell line was induced by tetracycline to express C99-GV protein fragment on cell membrane.

ERK1/2 = experiment: Assay for extracellular signal-regulated kinase (ERK) activity (Western blot p-ERK1/2 / ERK1/2); format: cell-based, Human; settings: for Activation of ERK1/2 (p-ERK/ERK, (%)): 10 μM, T-20 cells, positive control = 100, mean ± SD of three experiments
Method: Cell line used in this example were same as those described in example 2.
The activation of the ERKs was measured by using anti-phospho-ERK1/2 and anti-ERK1/2 antibodies (Cell Signaling Technology). In brief, T-20 cells were grown in six-well plates at 5×10^5 cells/well and incubated with culture medium at 37° C. for 18 hours, followed by an additional incubation with culture medium containing 1 μg/ml of tetracycline at 37° C. for 18 hours. Before the experiments, we replaced the medium with DMEM containing 0.5% FBS and treated it with the tested compounds (10 μM each). After treatment, reactions were stopped by placing cells on ice and aspirating off the medium. Cells were harvested and lysed in 50 mM Tris-HCl (pH 8.0), 150 mM NaCl, 5 mM EDTA, 1 mM sodium orthovanadate, 1% Triton X-100, and protease- and phosphatase-inhibitor cocktails. Protein concentration was determined by the BCA assay (Pierce). Each cell lysate, which contained 50 μg proteins, was separated on 12% SDS-polyacrylamide electrophoresis gels, immunoblotted, and identified using anti-phospho-ERK1/2 or anti-ERK1/2 antibody. In this example, T-20 cell line treated with medium containing 1% DMSO and 1 μg/ml of tetracycline was used as positive control group; T-20 cell line treated with medium containing various compounds (10 μM), 1% DMSO and 1 μg/ml of tetracycline were used as test groups for different compounds.

[2] = system: soluble amyloid precursor protein α (sAPPα); experiment: Effect on secretion of sAPPα in γ-30 cells (Western blot, 6E10 antibody); format: cell-based, Chinese hamster; settings: 10 μM; for protein content of sAPPα detected by Western blot: FIG. 4A
Method: It is known that monoamine oxidase B (MAO-B) inhibitor can activate directly or indirectly ERK-related pathway, so as to regulate amyloid precursor protein (APP) proteolytic process, which lead to modulate indirectly the secretion of soluble amyloid precursor protein α (sAPPα), and inhibit indirectly the production of insoluble β amyloid-peptides (Aβ). […] Thus, in this example, assay was carried out in γ-30 cells to examine the effect of 1,2,3,4-tetrahydroisoquinoline derivatives (12a, c and d) on the secretion of sAPPα.
As described in reference (3) and (6), briefly described below. PS70 Chinese hamster ovary cell (CHO cell) was used to perform a transfection to obtain γ-30 stably transfected cell line, γ-30 stably transfected cell line was used to express then full length amyloid precursor protein (APP) and human PS1, Aph-1α2, and Pen-2 proteins (Human PS, Aph-1α2, and Pen-2). This cell line could be used as the ideal model cell for detecting α-secretase degradation of amyloid precursor protein (APP).
Each group of corresponding cell lysate in example 5 was prepared to identical protein content. Proteins with different molecular weight were separated by means of electrophoresis on SDS-PAGE and Western Blot assay was carried using anti-Aβ1-17 monoclonal antibody (6E10) (purchased from US Chemicom Co.). In this example, γ-30 cell line treated with medium containing 1% DMSO was used as negative control group, γ-30 cell lines treated with medium containing different compounds (10 μM), 1% DMSO and 1 μg/ml of tetracycline were used as test group for different compounds, respectively.
γ-30 stably transfected cell line expresses full length amyloid precursor protein (APP) and human PS1, Aph-1α2, and Pen-2 proteins. When α-secretase cleavages amyloid precursor protein (APP), soluble amyloid precursor protein α (sAPPα) is formed, which can be used to detect whether a compound has an effect on the secretion of soluble amyloid precursor protein α (sAPPα). To this end, Western blot assay using Aβ1-17 monoclonal antibody (6E10) was carried out to detect soluble amyloid precursor protein α (sAPPα). […] Thereafter, results from Western blot assay were subjected to quantitatively statistical analysis.

[3] = T20, read-out: inhibition of the activity of γ-secretase compared with positive control group

Row | SMILES | IC50 [1] [µM] | Activation of ERK1/2 (p-ERK/ERK, (%)) (ERK1/2) [%] | inhibition at 10 µM (γ-secretase; [3]) [%] | protein content of sAPPα detected by Western blot [2] | relative sAPPα secretion (quantified Western blot) ([2]; FIG. 4B) | also measured
1 | C#CCN1CCc2ccc(OC(=O)N(C)CC)cc2C1 [Compound 11a, 7-(N-Methyl-N-ethylcarbamoyloxy)-N-propargyl-1,2,3,4-tetrahydroisoquinoline] | 21.5 ± 1 |  |  |  |  | 
2 | C#CCN1CCc2ccc(OC(=O)N3CCCCC3)cc2C1 [Compound 11c, 7-(1-Piperidinecarbamoyloxy)-N-propargyl-1,2,3,4-tetrahydroisoquinoline] | 15.7 ± 2.2 |  |  |  |  | 
3 | O=C(Oc1ccc2c(c1)CN(CC1CC1)CC2)N1CCCC1 [Compound 12b, 7-(1-Pyrrolidinecarbamoyloxy)-N-cyclopropylmethyl-1,2,3,4-tetrahydroisoquinoline] | 14.9 ± 1.1 |  |  |  |  | 
4 | C#CCN[C@@H]1CCc2ccccc21 [Rasagiline, rasagiline, reference compound] |  | 131 ± 14 |  |  |  | inhibition at 10 µM (γ-secretase; T20, 10 μM, T-20 cells, 24 hours, tetracycline 1 μg/ml, FIG. 2, read-out: inhibition of the activity of γ-secretase compared with positive control group): 6 to 15%
5 | CCN(C)C(=O)Oc1ccc2c(c1)CN(CC1CC1)CC2 [Compound 12a, 7-(N-Methyl-N-ethylcarbamoyloxy)-N-cyclopropylmethyl-1,2,3,4-tetrahydroisoquinoline] | 12.8 ± 2 | 131 ± 10 | 35 to 72 | higher than that of negative control group | could promote the secretion | 
6 | O=C(Oc1ccc2c(c1)CN(CC1CC1)CC2)N1CCOCC1 [Compound 12d, 7-(1-Morpholinecarbamoyloxy)-N-cyclopropylmethyl-1,2,3,4-tetrahydroisoquinoline] | 18.5 ± 0.8 | 138 ± 39 | 35 to 72 | higher than that of negative control group | could promote the secretion | 
7 | O=C(Oc1ccc2c(c1)CN(CC1CC1)CC2)N1CCCCC1 [Compound 12c, 7-(1-Piperidinecarbamoyloxy)-N-cyclopropylmethyl-1,2,3,4-tetrahydroisoquinoline] | 11.6 ± 0.7 | 155 ± 28 | 35 to 72 | higher than that of negative control group | could promote the secretion | ability to activate ERK relative to rasagiline test group (ERK1/2; 10 μM each): 1.2 times; promotion of sAPPα secretion compared with rasagiline test group ([2]; FIG. 4B): better promotion effect than rasagiline test group
8 | C#CCN1CCc2ccc(OC(=O)N3CCOCC3)cc2C1 [Compound 11d, 7-(1-Morpholinecarbamoyloxy)-N-propargyl-1,2,3,4-tetrahydroisoquinoline] | 18.7 ± 1.6 |  |  |  |  | 
9 | C#CCN1CCc2ccc(OC(=O)N3CCCC3)cc2C1 [Compound 11b, 7-(1-Pyrrolidinecarbamoyloxy)-N-propargyl-1,2,3,4-tetrahydroisoquinoline] | 13.9 ± 0.5 |  |  |  |  | 
